Laboratory results reported in PMC10874727, “The dual GGDEF/EAL domain enzyme PA0285 is a Pseudomonas species housekeeping phosphodiesterase regulating early attachment and biofilm architecture” (The Journal of Biological Chemistry, 2024).

Target: T1, PA0285_317-760 (Pseudomonas aeruginosa, UniProt Q9I6K5)
T1 construct: gene PA0285; GGDEF/EAL tandem domains, residues 317-760 of 760; transmembrane and PAS domains absent; GST tag cleaved by thrombin; E. coli BL21(DE3); monomer (copies word: monomeric)
T1 sequence (Q9I6K5 entry or part of it): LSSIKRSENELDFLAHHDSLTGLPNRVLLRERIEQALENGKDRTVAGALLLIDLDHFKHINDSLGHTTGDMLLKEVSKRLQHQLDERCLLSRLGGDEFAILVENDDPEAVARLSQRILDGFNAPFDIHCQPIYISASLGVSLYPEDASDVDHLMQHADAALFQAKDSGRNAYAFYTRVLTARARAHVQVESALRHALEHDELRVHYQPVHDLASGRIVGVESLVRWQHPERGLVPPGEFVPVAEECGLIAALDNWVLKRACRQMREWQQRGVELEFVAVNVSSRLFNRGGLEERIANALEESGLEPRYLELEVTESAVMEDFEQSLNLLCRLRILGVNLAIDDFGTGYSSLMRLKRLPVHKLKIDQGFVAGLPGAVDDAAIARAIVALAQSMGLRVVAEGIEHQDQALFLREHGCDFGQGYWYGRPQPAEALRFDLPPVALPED
Assay: HDX-MS
Assay type: binding
Details: 2.5 mM GTP, 1 mM MgCl2, 1 mM MnCl2, pH 7.5, 25 °C; site: GGDEF domain; no diguanylate cyclase turnover

SMILES: Nc1nc2c(ncn2[C@@H]2O[C@H](COP(=O)(O)OP(=O)(O)OP(=O)(O)O)[C@@H](O)[C@H]2O)c(=O)[nH]1 [GTP]
- HDX-MS: the neighboring helices exhibited reduced HDX, substantiating GTP binding
